Read-outs that look alike come from different tables or passages of the source.
Tests used:
α-glucosidase [1] = molecular target: T1, α-glucosidase (Saccharomyces cerevisiae, UniProt P53341); assay: inhibition kinetics of α-glucosidase, Lineweaver–Burk double-reciprocal plots; assay type: biochemical; conditions: compound 1 at 0.5 and 0.7 mM, compound 2 at 0.2 and 0.3 mM; for inhibition type: ρNPG 0.25-4.0 mM
Procedure: Louis, MO, USA) in the same PBS buffer. […] After being thoroughly mixed, the mixture was placed in a 37 °C constant temperature incubator for 15 min. […] Then, 80 μL of 200 mM Na2CO3 solution was added to complete the reaction. Finally, the absorbance value (OD) was measured at 405 nm using a microplate reader. The experiment used 20 μL of PBS as the background control instead of 20 μL of α-glucosidase solution. Additionally, 20 μL of PBS was used as the negative control instead of the test sample. […] Each treatment was repeated three times. The α-glucosidase inhibitory activity was calculated using the following formula: Inhibitory rate (%) = [(An - As)/An] × 100, where As represents the absorbance of the sample reaction solution, and An represents the absorbance of the negative control. The IC50 values, the inhibitor concentration in mM that inhibits 50% of the enzyme activity, were determined graphically by interpolating from the inhibitions determined with different concentrations of compounds, through statistical analysis using SPSS 18.0. […] For compound 1, concentrations of 0.5 mM and 0.7 mM were used, while for compound 2, concentrations of 0.2 mM and 0.3 mM were selected. […] The enzyme reaction was performed using the conditions described above. Inhibition types were analyzed using double-reciprocal plots generated with Origin 2021.

α-glucosidase [2] = molecular target: T1, α-glucosidase; conditions: cited from earlier work
[3] = test system: small intestinal α-glucosidase; design: method as in PMID 26840363; conditions: small intestinal α-glucosidase in rats; cited from earlier work
MAPKAP kinase-2 = molecular target: MAPKAP kinase-2; design: method as in PMID 16124774; conditions: weak inhibitors; cited from earlier work
HeLa cell line = test system: HeLa cell line; design: method as in PMID 19190740; conditions: at a concentration of 10 μg/mL; cited from earlier work

T1 sequence (P53341 whole entry): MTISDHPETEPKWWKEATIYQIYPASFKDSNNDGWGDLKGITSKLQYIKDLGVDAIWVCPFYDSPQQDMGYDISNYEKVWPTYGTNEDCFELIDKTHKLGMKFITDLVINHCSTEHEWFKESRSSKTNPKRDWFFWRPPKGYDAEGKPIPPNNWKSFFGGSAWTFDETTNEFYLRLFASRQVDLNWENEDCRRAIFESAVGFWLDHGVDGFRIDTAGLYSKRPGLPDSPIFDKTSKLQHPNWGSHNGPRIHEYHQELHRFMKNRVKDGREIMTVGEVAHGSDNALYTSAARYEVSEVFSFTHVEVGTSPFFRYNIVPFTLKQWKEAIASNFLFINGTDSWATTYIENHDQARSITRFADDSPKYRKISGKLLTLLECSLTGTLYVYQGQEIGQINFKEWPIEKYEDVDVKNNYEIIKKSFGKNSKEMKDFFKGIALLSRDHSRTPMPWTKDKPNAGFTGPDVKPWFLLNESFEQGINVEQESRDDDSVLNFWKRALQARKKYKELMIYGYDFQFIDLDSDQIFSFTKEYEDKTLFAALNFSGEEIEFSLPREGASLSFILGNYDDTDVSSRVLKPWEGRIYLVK

In the case of CCCc1cc(=O)c2c(CC(=O)O)cccc2o1 [Compound 1, phaeochromycin E], the “effect on Km” value (α-glucosidase [1]) is reported as “Km decreases”, the “effect on Vmax” value (α-glucosidase [1]) is reported as “decrease in Vmax” and the inhibition type (α-glucosidase [1]) is reported as “uncompetitive inhibitor”.
For NS(=O)(=O)c1ccc(N/N=C/c2coc3ccccc3c2=O)cc1 [Compound 4d], the inhibition type (α-glucosidase [2]; Lineweaver–Burk plot analysis) is listed as “non-competitive mode”.
In the case of O=C(OC[C@H]1O[C@@H](OC(=O)c2cc(O)c(O)c(OC(=O)c3cc(O)c(O)c(O)c3)c2)[C@H](OC(=O)c2cc(O)c(O)c(OC(=O)c3cc(O)c(O)c(O)c3)c2)[C@@H](OC(=O)c2cc(O)c(O)c(OC(=O)c3cc(O)c(O)c(O)c3)c2)[C@@H]1OC(=O)c1cc(O)c(O)c(OC(=O)c2cc(O)c(O)c(O)c2)c1)c1cc(O)c(O)c(OC(=O)c2cc(O)c(O)c(O)c2)c1 [Gallotannin], the inhibition type (α-glucosidase [2]) is given as “parabolic mixed-type inhibition”.
For OC[C@@H]1[C@@H](O)[C@H](O)C[S@@+]1C[C@@H](O)[C@@H](O)[C@H](O)[C@@H](O)CO [Neoponkoranol], the inhibition type [3] is listed as “strong competitive inhibition”.
For Phaeochromycin A, the IC50 (MAPKAP kinase-2) is listed as 39 µM.
In the case of O=c1c(-c2ccc(O)cc2)coc2cc(O)cc(O)c12 [genistein], the inhibition type (α-glucosidase [2]) is given as “non-competitive action”.
In the case of phaeochromycin H, the “inhibitory rate against the HeLa cell line” value (HeLa cell line) is listed as 46.0%.
For O=c1c(-c2ccc(O)cc2)coc2cc(O)ccc12 [daidzein], the inhibition type (α-glucosidase [2]) is given as “non-competitive action”.
For CCCc1cc(=O)c2c(Cc3cc(O)cc(=O)o3)cccc2o1 [Phaeochromycin C], the IC50 (MAPKAP kinase-2) is given as 130 µM.
In the case of CC(=O)CCc1ccc(O)cc1 [Raspberry ketone], the inhibition type (α-glucosidase [2]; binding reversibly and quickly) is given as “non-competitively”.
For CCCc1cc(=O)c2c(CC(=O)CC(C)O)cccc2o1 (stereo not shown) [Compound 2, phaeochromycin D], the “effect on Km” value (α-glucosidase [1]) was “keeping the Km constant”, the “effect on Vmax” value (α-glucosidase [1]) was “decreasing the 1/Vmax” and the inhibition type (α-glucosidase [1]) was “non-competitive inhibitor”.
In the case of Cc1nc2c(cc(O)c3c(=O)c4ccccc4oc32)o1 [5-hydroxy-2-methyl-6H-xantheno[4,3-d]oxazol-6-one], the inhibition type (α-glucosidase [2]; kinetic analysis) is listed as “competitive inhibitor”.

Source: paper PMC12073238, “The α-Glucosidase Inhibition Activities of Phaeochromycins D and E Isolated from Marine Streptomyces sp. FJ0218” (Molecules, 2025)
